From patent publication US20220023196A1, “COSMETIC COMPOSITION FOR SKIN IMPROVEMENT COMPRISING GREEN BARLEY EXTRACT” (AMI COSMETIC CO., LTD., priority 2020, published 2022)

Experiments:
aquaporin 3 (AQP3) = experiment: AQP3 production in HaCaT cells (AQP3-ELISA kit); assay type: cell-based; settings: 24 hours; for Increase in AQP3 production (%): Concentration 50 (unit not given), Control = 100
Protocol: (§1) In addition, HaCaT cells were dispensed into a 24-well plate at 1.0×10^5 cells/mL and then cultured under the conditions of 37° C. and 5% CO2 for 18 hours. After the medium was replaced with serum-free DMEM, the cells were treated with a sample and then cultured for 24 hours. Subsequently, the culture solution was removed, and each group was washed with PBS and then treated with PBS containing no drugs that could interfere with the quantification of proteins. The cells were lysed through repeated switching between low-temperature incubation and room-temperature incubation, and the proteins were collected. The quantification was performed, using an AQP3-ELISA kit (Elabscience Biotechnology Co., Ltd.), according to the method specified by the manufacturer.
In order to evaluate the moisturizing effect of Examples 1 to 6 and Comparative Examples 1 to 5, an experiment was conducted to evaluate an AQP3 production increasing effect.
The AQP3 production amount was measured in the same manner as in Experimental Example 3-2.

hyaluronic acid (HA) = experiment: HA production in HaCaT cells (hyaluronic acid ELISA kit); assay type: cell-based; settings: 24 hours; for Increase in HA production (%): Concentration 50 (unit not given), Control = 100
Protocol: HaCaT cells were dispensed into a 24-well plate at 1.0×10^5 cells/mL and cultured under the conditions of 37° C. and 5% CO2 for 18 hours. After the medium was replaced with serum-free DMEM, the cells were treated with a sample and then cultured for 24 hours. Subsequently, the culture medium was collected and centrifuged at 15,000 rpm for five minutes, and the supernatant was collected and stored frozen (−20° C.) until quantified. Enzyme-linked immunosorbent assay (ELISA) was conducted, using a hyaluronic acid ELISA kit (Elabscience Biotechnology Co., Ltd.), according to the method specified by the manufacturer.
In order to evaluate the moisturizing effect of Examples 1 to 6 and Comparative Examples 1 to 5, an experiment was conducted to evaluate an HA production increasing effect.
The HA production amount was measured in the same manner as in Experimental Example 3-2.

filaggrin (FLG) = experiment: FLG production in HaCaT cells (Filaggrin-ELISA kit); assay type: cell-based; settings: for Increase in FLG production (%): 24 hours, Concentration 50 (unit not given), Control = 100
Protocol: as §1, with “HaCaT cells” for “In addition, HaCaT cells”, “cells/mL and cultured under” for “cells/mL and then cultured under”, “performed, using a Filaggrin-ELISA kit (Elabscience” for “performed, using an AQP3-ELISA kit (Elabscience”
In order to evaluate the skin barrier strengthening effect of Examples 1 to 6 and Comparative Examples 1 to 5, an experiment was conducted to evaluate the effect of increasing the production of FLG.
The production amount of FLG was measured in the same manner as in Experimental Example 3-1.

sensitive skin = experiment: Human patch test for skin irritation on sensitive skin; assay type: in vivo
Protocol: A test was conducted to evaluate the suitability and safety of use of soothing gel, lotion, cream, body wash, and foam cleanser formulations including a composition including the ceramide and green barley extract of the present invention. The inventors requested the OATC Skin Clinical Trials Center to perform a human application test, and the test was conducted in accordance with the cosmetics guidelines of Korea's Ministry of Food and Drug Safety, Declaration of Helsinki, and OATC Skin Clinical Trials Center's SOP.
In order to classify the test subjects according to skin type, the test subjects were screened by a stinging test to identify those with sensitive skin, wherein steam was applied to their faces for 10 minutes using a steamer to make their skin sensitive, and subsequently, each of 10% lactic acid and distilled water (D.W.) was applied to the nasolabial folds on either side of the nose.
After the test subject's test site was wiped off with 70% ethanol and dried, 25 μl of a test product was applied dropwise to IQ Ultra, which was then attached and fixed to the test site. At 30 minutes, 24 hours, and 48 hours after removing the patch, the level of irritation was evaluated by two experts using, as a standard, the evaluation method devised by Frosch & Kligman and employing the reading standards of the International Contact Dermatitis Research Group (ICDRG).
In addition, safety zones were established, and an experiment was conducted while using the safety zones as criteria for evaluating the likelihood of causing irritation.

Molecule	Increase in AQP3 production (%) (aquaporin 3 (AQP3))	Increase in HA production (%) (hyaluronic acid (HA))	Increase in FLG production (%) (filaggrin (FLG))	other results
CCCCCCCCCCCCCCCCCCCCCCC(=O)NC(CO)C(O)C(O)CCCCCCCCCCCCCC (stereo not drawn) [Comparative Example 3, Ceramide NP]	114.6	93.2	115.5	–
CCCCCCCCCCCCC/C=C/C(O)C(CO)NC(=O)CCCCCCCCCCCCCCCCCCCCCC (stereo not drawn) [Comparative Example 2, Ceramide NS]	118.5	94.5	116.7	–
O=c1cc(-c2ccc(O)cc2)oc2cc(O[C@@H]3O[C@H](CO)[C@@H](O)[C@H](O)[C@H]3O)c([C@@H]3O[C@H](CO)[C@@H](O)[C@H](O)[C@H]3O)c(O)c12 [saponarin, 5-hydroxy-2-(4-hydroxyphenyl)-6-[3,4,5-trihydroxy-6-(hydroxymethyl)oxan-2-yl]-7-[3,4,5-trihydroxy-6-(hydroxymethyl)oxan-2-yl]oxychromen-4-one]	–	–	–	Production of AQP3 (result in words) (aquaporin 3 (AQP3)): significantly increased the production of skin moisturizing factors; Production of HA (result in words) (hyaluronic acid (HA)): significantly increased the production of skin moisturizing factors; Increase of the expression level of FLG compared to the control (filaggrin (FLG); 24 hours (FIG. 6)): 29.87%
CCCCCCCCCCCCC/C=C/C(O)C(CO)NC(=O)C(O)CCCCCCCCCCCCCCCCCCCCC (stereo not drawn) [Comparative Example 4, Ceramide AS]	114.5	94.6	122.4	–
CCCCCCCCCCCCCCCCCCCCCC(O)C(=O)NC(CO)C(O)C(O)CCCCCCCCCCCCCC (stereo not drawn) [Comparative Example 5, Ceramide AP]	113.7	95.2	129.9	–
CCCCCCCCCCCCOS(=O)(=O)[O-].[Na+] [1% SLS]	–	–	–	Sum of skin irritation reaction intensity 1st (sensitive skin; 1st reading, patch test): 4.00; Sum of skin irritation reaction intensity 2nd (sensitive skin; 2nd reading, patch test): 4.00; Sum of skin irritation reaction intensity 3rd (sensitive skin; 3rd reading, patch test): 3.06; Irritation of level ++ or more in >10% of test subjects (sensitive skin; conformity criterion): Conforming; Safety zone (sensitive skin; conformity to safety zone of Table 20): Conforming; Skin irritation index (sensitive skin; patch test): 3.06
Ceramide EOP [Comparative Example 1]	117.5	93.0	119.5	–
